From patent US20110034528A1, “Elansolids, Novel Natural Metabolites of Flexibacter and Antibiotically Active Derivatives Thereof” (priority 2008, published 2011)
In brackets after ≈: the same amount, converted by molar mass.

Columns and labels:
[1] = tested on: Chromobacterium violaceum; assay: Minimum inhibitory concentration (MIC) determination; assay type: cell-based
Protocol: (§1) The determination of minimum inhibitory concentrations was performed as described in J. Antimicrob. Chemother. 2001;48 Suppl 1:5-16.

Corynebact. fascians = assay: as above; assay type: cell-based
Protocol: as §1

E. faecalis 25912 = assay: as above; assay type: cell-based; conditions: Enterococcus faecalis
Protocol: as §1

Micrococcus luteus = assay: as above; assay type: cell-based
Protocol: as §1

Mycobacterium lacticola = assay: as above; assay type: cell-based
Protocol: as §1

S. aureus 29213 = assay: as above; assay type: cell-based; conditions: Staphylococcus aureus
Protocol: as §1

[2] = tested on: S. aureus MRS3 (clinical isolate of a multiresistant S. aureus); assay: as above; assay type: cell-based; conditions: Staphylococcus aureus
Protocol: as §1

[3] = Transformation of Elansolid A2 in solution; assay type: physicochemical; conditions: in solution (especially in DMSO)
gram-positive bacteria = assay: Elansolid C1: antibiotic spectrum against gram positive bacteria; assay type: cell-based

| MIC [1] [µg/mL] | MIC (Corynebact. fascians) [µg/mL] | MIC (E. faecalis 25912) [µg/mL] | MIC (Micrococcus luteus) [µg/mL] | MIC (Mycobacterium lacticola) [µg/mL] | MIC (S. aureus 29213) [µg/mL] | MIC [2] [µg/mL] | transformation in solution [3] | SMILES | Inhibition zone (gram-positive bacteria; Arthrobacter simplex) [mm] | Inhibition zone (gram-positive bacteria; Bacillus polymyxa) [mm] | Inhibition zone (gram-positive bacteria; Bacillus thuringiensis) [mm] | Inhibition zone (gram-positive bacteria; Brevibact. ammoniagenes) [mm] | Inhibition zone (gram-positive bacteria; Corynebact. fascians) [mm] | Inhibition zone (gram-positive bacteria; Micrococcus luteus) [mm] | Inhibition zone (gram-positive bacteria; Mycobact. chitae) [mm] | Inhibition zone (gram-positive bacteria; Nocardia flava) [mm] | Inhibition zone (gram-positive bacteria; Staph. aureus) [mm] | Inhibition zone (gram-positive bacteria; Streptococcus faecalis) [mm] | activity against selected gram-positive bacteria (gram-positive bacteria; selected gram-positive bacteria) |
| --- | --- | --- | --- | --- | --- | --- | --- | --- | --- | --- | --- | --- | --- | --- | --- | --- | --- | --- | --- |
| 3.3 (≈ 5.6 µM) | 1.6 (≈ 2.72 µM) | 64 (≈ 109 µM) | 0.2 (≈ 0.34 µM) | 3.3 (≈ 5.6 µM) | 4 (≈ 6.79 µM) | 0.8 (≈ 1.36 µM) | transformed into Elansolid A1 | CC1=CC2C(C3C1\C=C/C=C/C=C\C(O)C(C)C(O)C/C=C(C)/C=C/C(=O)OC3c1ccc(O)cc1)C(C)(C)CC2(C)O (stereo not drawn) [Elansolid A2] | – | – | – | – | – | – | – | – | – | – | – |
| – | – | – | 0.4 (≈ 0.551 µM) | – | – | 1.7 (≈ 2.34 µM) | – | CC1=CC2C(C(C(Nc3ccccc3C(=O)O)c3ccc(O)cc3)C1\C=C/C=C/C=C\C(O)C(C)C(O)C/C=C(C)/C=C/C(=O)O)C(C)(C)CC2(C)O (stereo not drawn) [Elansolid C1] | 25 | 20 | 17 | 17 | 26 | 27 | 15 | 14 | 11 | 14 | bactericidal activity |
